# ChEMBL document CHEMBL3758081, “Synthesis and biological evaluation of new naphthalene substituted thiosemicarbazone derivatives as potent antifungal and anticancer agents” (Eur J Med Chem, 2016)
# What was measured:
# Candida parapsilosis = assay: Antifungal activity against Candida parapsilosis NRLL Y-12696 after 48 hrs by broth microdilution method; type: functional; details: Lodderomyces parapsilosis, NRLL Y-12696, 48 h
# Candida tropicalis = assay: Antifungal activity against Candida tropicalis NRLL Y-12968 after 48 hrs by broth microdilution method; type: functional; details: NRLL Y-12968, 48 h
# [1] = Cytotoxicity against mouse NIH/3T3 cells after 24 hrs by XTT assay; type: cell-based; details: NIH3T3, 24 h
# Pichia kudriavzevii = assay: Antifungal activity against Candida krusei NRLL Y-7179 after 48 hrs by broth microdilution method; type: functional; details: NRLL Y-7179, 48 h
# Fusarium solani = assay: Antifungal activity against Fusarium solani NRRL-13414 after 72 hrs by broth microdilution method; type: functional; details: NRRL-13414, 72 h
# Candida albicans = assay: Antifungal activity against Candida albicans ATCC-90028 after 48 hrs by broth microdilution method; type: functional; details: ATCC-90028, 48 h
# Aspergillus parasiticus = assay: Antifungal activity against Aspergillus parasiticus NRRL 465 after 72 hrs by broth microdilution method; type: functional; details: NRRL 465, 72 h
# Aspergillus flavus = assay: Antifungal activity against Aspergillus flavus NRRL-980 after 72 hrs by broth microdilution method; type: functional; details: NRRL-980, 72 h
# [Candida] zeylanoides = Antifungal activity against Candida zeylanoides NRLL Y-1774 after 48 hrs by broth microdilution method; type: functional; details: Dujonia zeylanoides, NRLL Y-1774, 48 h
# A549 = assay: Cytotoxicity against human A549 cells after 24 hrs by XTT assay; type: functional, cell-based; details: A549, 24 h
# Nakaseomyces glabratus = assay: Antifungal activity against clinical isolate Candida glabrata after 48 hrs by broth microdilution method; type: functional
# Aspergillus niger = assay: Antifungal activity against Aspergillus niger ATCC-1094 after 72 hrs by broth microdilution method; type: functional; details: ATCC-1094, 72 h
Compound,MIC (Candida parapsilosis),MIC (Candida tropicalis),MIC (Pichia kudriavzevii),MIC (Fusarium solani),MIC (Candida albicans),MIC (Aspergillus parasiticus),MIC (Aspergillus flavus),MIC ([Candida] zeylanoides),MIC (Nakaseomyces glabratus),MIC (Aspergillus niger),IC50 [1],IC50 (A549)
Fc1ccc(/C=N/NC(=S)Nc2cccc3ccccc23)cc1F,250 µg/mL,250 µg/mL,250 µg/mL,250 µg/mL,250 µg/mL,250 µg/mL,250 µg/mL,250 µg/mL,250 µg/mL,250 µg/mL,> 500 µg/mL,125 µg/mL
Fc1cccc(Cl)c1/C=N/NC(=S)Nc1cccc2ccccc12,250 µg/mL,250 µg/mL,250 µg/mL,250 µg/mL,250 µg/mL,250 µg/mL,250 µg/mL,250 µg/mL,250 µg/mL,250 µg/mL,> 500 µg/mL,125 µg/mL
Fc1ccc(/C=N/NC(=S)Nc2cccc3ccccc23)cc1Cl,250 µg/mL,250 µg/mL,250 µg/mL,250 µg/mL,250 µg/mL,250 µg/mL,250 µg/mL,250 µg/mL,250 µg/mL,250 µg/mL,500 µg/mL,51.3 µg/mL
Fc1ccc(Oc2ccc(/C=N/NC(=S)Nc3cccc4ccccc34)cc2)cc1,250 µg/mL,250 µg/mL,250 µg/mL,250 µg/mL,250 µg/mL,250 µg/mL,250 µg/mL,250 µg/mL,250 µg/mL,250 µg/mL,> 500 µg/mL,62.5 µg/mL
CC(=O)N1CCN(c2ccc(OCC3COC(Cn4ccnc4)(c4ccc(Cl)cc4Cl)O3)cc2)CC1 (stereo unspecified) [KETOCONAZOLE],15.6 µg/mL,125 µg/mL,125 µg/mL,62.5 µg/mL,62.5 µg/mL,7.81 µg/mL,15.6 µg/mL,250 µg/mL,62.5 µg/mL,31.2 µg/mL,,

# The next lines start with results.
MIC (Candida parapsilosis),MIC (Candida tropicalis),MIC (Pichia kudriavzevii),MIC (Fusarium solani),MIC (Candida albicans),MIC (Aspergillus parasiticus),MIC (Aspergillus flavus),MIC ([Candida] zeylanoides),MIC (Nakaseomyces glabratus),MIC (Aspergillus niger),Compound,IC50 [1],IC50 (A549)
250 µg/mL,250 µg/mL,250 µg/mL,250 µg/mL,250 µg/mL,250 µg/mL,250 µg/mL,250 µg/mL,250 µg/mL,250 µg/mL,Fc1ccc(/C=N/NC(=S)Nc2cccc3ccccc23)c(F)c1,> 500 µg/mL,31.2 µg/mL
250 µg/mL,250 µg/mL,250 µg/mL,250 µg/mL,250 µg/mL,250 µg/mL,250 µg/mL,250 µg/mL,250 µg/mL,250 µg/mL,Fc1cc(F)cc(/C=N/NC(=S)Nc2cccc3ccccc23)c1,> 500 µg/mL,500 µg/mL
250 µg/mL,250 µg/mL,250 µg/mL,250 µg/mL,250 µg/mL,250 µg/mL,250 µg/mL,250 µg/mL,250 µg/mL,250 µg/mL,Fc1cc(F)c(/C=N/NC(=S)Nc2cccc3ccccc23)c(F)c1,> 500 µg/mL,> 500 µg/mL
250 µg/mL,250 µg/mL,250 µg/mL,250 µg/mL,250 µg/mL,250 µg/mL,250 µg/mL,250 µg/mL,250 µg/mL,250 µg/mL,Fc1cccc(F)c1/C=N/NC(=S)Nc1cccc2ccccc12,31.2 µg/mL,500 µg/mL
